Data set [1] is described as follows: Chemical stability of JC1 compounds. The class given is physicochemical.
Data set [2] has as its system LXRα. The experiment in a line: Transcriptional activity of LXRα, LXRE-Luc reporter in HepG2 cells treated with T17. Type of data set: cell-based, human. The settings on record: 1 μM, 10 μM, 20 μM, 50 μM, and 100 μM with 1 μM T17, 24 hours; FIG. 5a. The procedure:
A human hepatoma cell line and HepG2 (ATCC HB 8065) were purchased from ATCC. HepG2 cells (1.2×10^5 cells/well) were seeded on a 24-well culture plate and cultured overnight in a DMEM containing 10% FBS. The HepG2 cells were maintained at 37° C. in a humidification thermostat containing 5% CO2 and 95% air. After culturing, the HepG2 cells were transformed with LXRE-Luc reporter (0.1 μg) using Welfect-EXTM Plus (WelGENE Inc., Korea). 24 hours after transformation, the HepG2 cells were treated with particular concentrations (1 μM, 10 μM, 20 μM, 50 μM, and 100 μM) of JC1-38, JC1-40, and JC1-42 and 1 μM T17 (T0901317), which is a ligand of LXRα, for 24 hours. Subsequently, cell lysates were collected, and luciferase activity was analyzed and determined using an analytical luminescence luminometer. The luciferase activity was standardized by β-gal activity to determine transcriptional activity, and data was attained as the mean and SD for two or three independent experimental results, and the results thereof are illustrated in FIG. 5a.

In data set [3] the test system is SREBP-1. Put plainly: Transcriptional activity of SREBP-1, SRE-Luc reporter in HepG2 cells treated with T17. The class given is cell-based, human. As to conditions: 50 μM with 1 μM T17, 24 hours; FIG. 5b. The procedure:
In addition, HepG2 cells were cultured under the same conditions, and then the HepG2 cells were transformed with SRE-Luc reporter (0.1 μg) using Welfect-EXTM Plus (WelGENE Inc., Korea). 24 hours after transformation, the HepG2 cells were treated with each of the JC1-38, JC1-40, and JC1-42 compounds at a concentration of 50 μM and 1 μM T17 (T0901317) for 24 hours. Subsequently, cell lysates were collected, and luciferase activity was analyzed and determined using an analytical luminescence luminometer. The luciferase activity was standardized by β-gal activity to determine transcriptional efficiency, and data was attained as the mean and SD for three independent experimental results, and the results thereof are illustrated in FIG. 5b.

The test system of data set [4] is SREBP-1. The experiment in a line: Expression of SREBP-1 protein in HepG2 cells, western blotting. Type of data set: cell-based, human. The settings on record: for expression of SREBP-1 protein: 100 μM, 24 hours, FIG. 6a; for expression of SREBP-1, which had been increased by T17: 0, 1, 10, 50, 100 μM with 1 μM T17, 24 hours, FIGS. 6b and 6c; for expression of proteins (LXRα, SREBP-1, FAS of FIGS. 6b and 6c): 50 μM to 100 μM with 1 μM T17, 24 hours. As to the method:
HepG2 cells (1×10^6 cells/well) were seeded on a 60-dish and cultured overnight in a DMEM containing 10% FBS. The HepG2 cells were maintained at 37° C. in a humidification thermostat containing 5% CO2 and 95% air. After culturing, the HepG2 cells were treated with each of the JC1-38, JC1-40, and JC1-42 compounds at a concentration of 100 μM, and, as a positive control, the HepG2 cells were treated with 2 mM metformin, which is an AMPK activator, for 24 hours. After treatment, the expression of proteins was analyzed by western blotting analysis. That is, after treatment, the HepG2 cells were destroyed on ice in a lysis buffer containing 50 mM NaCl, 50 mM Tris pH 7.4, 5 mM EDTA, 1% NP-40, and a protease inhibitor for 30 minutes, and then centrifuged to obtain a total cell lysate. 20 μg to 30 μg of proteins collected from the total cell lysate was subjected to 7% to 9% sodium dodecyl sulfate-polyacrylamide gel electrophoresis (SDS-PAGE), and was transferred to a polyvinylidene difluoride membrane (Millipore, Bedford, Mass., USA). The resulting product was subjected to blocking with 5% or 10% (w/v) nonfat dry milk in PBS containing 0.1% Tween-20, and was reacted with antibodies specific to RORα (Affinity BioReagents), LXRα, SREBP-1, FAS (Santa Cruz Biotechnology), phospho-ACC (Cell signaling), and α-tubulin (Calbiochem). Immunoreactive proteins were detected with Amersham ECL western blotting detection reagents using a horseradish peroxidase (HRP)-conjugated secondary antibody (Zymed Lab). Protein concentrations were quantified by bicinchoninic acid (BCA) (Pierce) analysis, and the expression of α-tubulin was monitored as a control. The results thereof are illustrated in FIG. 6a.
In addition, HepG2 cells were cultured under the same conditions, and then the HepG2 cells were treated with particular concentrations (0 μM, 1 μM, 10 μM, 50 μM, and 100 μM) of JC1-40 (or JC1-42) and 1 μM T17 for 24 hours. After treatment, the expression of proteins was analyzed by western blotting analysis, and the expression of α-tubulin was monitored as a control. The results thereof are illustrated in FIGS. 6b and 6c.

The subject of data set [5] is MCAD. Put plainly: Fatty acid oxidation gene MCAD in HepG2 cells, real-time RT-PCR. The class given is cell-based, human. The settings on record: 100 μM, 24 hours; FIG. 8. As to the method: (§1) HepG2 cells (1×10^6 cells/well) were seeded on a 60-dish and cultured overnight in a DMEM containing 10% FBS. The HepG2 cells were maintained at 37° C. in a humidification thermostat containing 5% CO2 and 95% air. After culturing, the HepG2 cells were treated with JC1-38, JC1-40, and JC1-42 at a concentration of 100 μM for 24 hours. After treatment, effects thereof on transcriptional activity were analyzed by real-time reverse transcriptase-polymerase chain reaction (real-time RT-PCR) analysis. The PCR was performed using the following primers respectively specific to MCAD, ACO1, ACO2, HMGCS2, CPT-1, and ACS, which are involved in fatty acid oxidation: […]

The test system of data set [6] is ACO1. Put plainly: Fatty acid oxidation gene ACO1 in HepG2 cells, real-time RT-PCR. The class given is cell-based, human. As to conditions: 100 μM, 24 hours; FIG. 8. The procedure:
as §1

Data set [7] concerns ACO2. The experiment in a line: Fatty acid oxidation gene ACO2 in HepG2 cells, real-time RT-PCR. As to conditions: 100 μM, 24 hours; FIG. 8. Type of data set: cell-based, human. The procedure:
as §1

Data set [8] has as its system CPT-1. The experiment in a line: Fatty acid oxidation gene CPT-1 in HepG2 cells, real-time RT-PCR. The class given is cell-based, human. As to conditions: 100 μM, 24 hours; FIG. 8. The procedure:
as §1

Data set [9] relates to ACS. Put plainly: Fatty acid oxidation gene ACS in HepG2 cells, real-time RT-PCR. Type of data set: cell-based, human. The settings on record: 100 μM, 24 hours; FIG. 8. The procedure: as §1
Data set [10] concerns CD36. The experiment in a line: Fatty acid uptake gene CD36 in HepG2 cells, RT-PCR. The class given is cell-based, human. As to conditions: 100 μM, 24 hours; FIG. 9a. As to the method: as §1, with “60-dish,” for “60-dish”, “RT-PCR” for “real-time reverse transcriptase-polymerase chain reaction (real-time RT-PCR)”, “CD36 (see FIG. 9a) involved in fatty acid uptake” for “MCAD, ACO1, ACO2, HMGCS2, CPT-1,”, “MTTP and ApoB100 (see FIG. 9b),” for “ACS,”, “the secretion of very low density lipoproteins:” for “fatty acid oxidation:”

Data set [11] has as its system MTTP. Put plainly: VLDL secretion gene MTTP in HepG2 cells, RT-PCR. Type of data set: cell-based, human. The settings on record: 100 μM, 24 hours; FIG. 9b. As to the method:
as §1, with “60-dish,” for “60-dish”, “RT-PCR” for “real-time reverse transcriptase-polymerase chain reaction (real-time RT-PCR)”, “CD36 (see FIG. 9a) involved in fatty acid uptake” for “MCAD, ACO1, ACO2, HMGCS2, CPT-1,”, “MTTP and ApoB100 (see FIG. 9b),” for “ACS,”, “the secretion of very low density lipoproteins:” for “fatty acid oxidation:”

Consider `CNC(=S)NCc1ccccc1-c1ccncc1` [Compound 38, 1-methyl-3-(4-pyridinyl-2-benzyl)-thiourea], for which, in data set [1], the chemical stability result was “highly chemically stable”. In data set [2], the “transcriptional activity of LXRα, which had been increased by T17” value was “decreased in a manner dependent on the concentration”. For the same compound, the “transcriptional activity of SREBP-1, which had been increased by T17” value in data set [3] was “decreased”. The “expression of SREBP-1 protein” value in data set [4] is “decreased”. The “transcriptional activity of MCAD” value in data set [5] is “increased”. The “transcriptional activity of ACO1” value in data set [6] was “increased”. For the same compound, the “transcriptional activity of ACO2” value in data set [7] is listed as “increased”. In addition, in data set [8], the “transcriptional activity of CPT-1” value is on record as “increased”. For the same compound, the “transcriptional activity of ACS” value in data set [9] is “increased”. For the same compound, the “transcriptional activity of CD36” value in data set [10] was “decreased”. For the same compound, the “transcriptional activity of MTTP” value in data set [11] was “increased”.
As for `CNC(=S)NCc1ccc(OCc2ccccc2)cc1` [Compound 40, 1-(4-benzyloxy-benzyl)-3-methyl-thiourea], the chemical stability result in data set [1] is listed as “highly chemically stable”. Besides, in data set [2], the “transcriptional activity of LXRα, which had been increased by T17” value was “decreased in a manner dependent on the concentration”. Besides, the “transcriptional activity of SREBP-1, which had been increased by T17” value in data set [3] was “decreased”. In addition, in data set [4], the “expression of SREBP-1, which had been increased by T17” value is reported as “decreased in a manner dependent on the concentration”; the “expression of proteins (LXRα, SREBP-1, FAS of FIGS. 6b and 6c)” value is given as “strongly inhibited”; the “expression of SREBP-1 protein” value is “decreased”. Besides, in data set [5], the “transcriptional activity of MCAD” value is reported as “increased”. Further, the “transcriptional activity of ACO1” value in data set [6] was “increased”. For the same compound, the “transcriptional activity of ACO2” value in data set [7] is “increased”. The “transcriptional activity of CPT-1” value in [8] was “increased”. In data set [9], the “transcriptional activity of ACS” value is given as “increased”. In addition, the “transcriptional activity of CD36” value in [10] is given as “decreased”. Besides, in data set [11], the “transcriptional activity of MTTP” value is “increased”.
`CNC(=S)NCc1ccc(Oc2ccccc2)cc1` [Compound 42, 1-(4-phenoxy-benzyl)-3-methyl-thiourea]: the chemical stability result in [1] is recorded as “highly chemically stable”. The “transcriptional activity of LXRα, which had been increased by T17” value in data set [2] is “decreased in a manner dependent on the concentration”. Also, in data set [3], the “transcriptional activity of SREBP-1, which had been increased by T17” value is recorded as “decreased”. Further, in data set [4], the “expression of SREBP-1, which had been increased by T17” value is listed as “decreased in a manner dependent on the concentration”; the “expression of proteins (LXRα, SREBP-1, FAS of FIGS. 6b and 6c)” value was “strongly inhibited”; the “expression of SREBP-1 protein” value was “decreased”. Besides, the “transcriptional activity of MCAD” value in data set [5] was “increased”. The “transcriptional activity of ACO1” value in data set [6] was “increased”. Moreover, in data set [7], the “transcriptional activity of ACO2” value is listed as “increased”. The “transcriptional activity of CPT-1” value in data set [8] was “increased”. The “transcriptional activity of ACS” value in [9] is given as “increased”. Besides, the “transcriptional activity of CD36” value in data set [10] was “decreased”. Besides, the “transcriptional activity of MTTP” value in data set [11] was “increased”.

Values taken from patent US10407388B2, “Thiourea derivatives as activators of RORα and pharmaceutical composition containing same” (SEOUL NATIONAL UNIVERSITY R & DB FOUNDATION, priority 2011, dated 2019).
